Values quoted from earlier work as cited in US20240099995A1, “METHOD OF PREPARING A TOPICAL PHARMACEUTICAL COMPOSITION” (PHEBRA PTY LTD, priority 2021, published 2024).
Read-outs that look alike come from different tables or passages of the source.

Experiments:
[1] = not given; remark: listed apart in the source

SMILES | concentration loss (4° C. and above, after 2 days) [%] | concentration loss (22° C., within 90 minutes) [%] | time stable (stored in a freezer, acidic and basic conditions) | duration of topical anesthesia ([1]; with adrenaline) [min] | duration of topical anesthesia ([1]; without adrenalin) [min]
CNCC(O)c1ccc(O)c(O)c1 (centres unmarked) [adrenaline] | 100 | 100 | at least 28 days |  | 
CCN(CC)CC(=O)Nc1c(C)cccc1C [lignocaine] |  |  |  | 120 to 360 | 30 to 60
